Among the data in the NIST ThermoML archive (doi:10.1016/j.fluid.2013.08.022) are viscosity and mass density values, retold here.

Broadly, the viscosity is the internal friction of a fluid under shear. What is called mass density is the mass of a sample divided by its volume.

The nature of the series: wn = mass fraction of the nth substance listed. The conditions noted are these: 298.15 K, 101 kPa, Liquid; for viscosity: Cone and plate viscometry; for mass density: Vibrating tube method.

In the case of `CCOC(=O)OCC` [diethyl carbonate] + CC#N, the viscosity worked out at 0.74 mPa·s (w2 = 0), 0.65 mPa·s (w2 = 0.25), 0.57 mPa·s (w2 = 0.5) and 0.45 mPa·s (w2 = 0.75). Besides, the mass density reads like this: (w2 = 0) 969.17 kg/m3; (w2 = 0.25) 921.12 kg/m3; (w2 = 0.5) 873.25 kg/m3; (w2 = 0.75) 824.87 kg/m3.
For the compound `CC#N` [acetonitrile] + CCOC(=O)OCC, for the setting “w1 = 1”, the viscosity was 0.34 mPa·s and the mass density is reported as 776.85 kg/m3.
